According to BindingDB's records for patent WO2025049746 (Eikon Therapeutics, 2025):

Assays:
[1] = target: Bifunctional 3'-5' exonuclease/ATP-dependent helicase WRN (Homo sapiens, UniProt Q14191); assay: ADP-Glo Kinase Assay
Description: ATPase activity was measured using the ADP-Glo Kinase Assay following the manufacturers recommended protocol.

[2] = target: T1, Bifunctional 3'-5' exonuclease/ATP-dependent helicase WRN [480-1251] (UniProt Q14191); assay: Biochemical Activity Assays
T1 construct: 480-1251
T1 sequence (Q14191 480-1251): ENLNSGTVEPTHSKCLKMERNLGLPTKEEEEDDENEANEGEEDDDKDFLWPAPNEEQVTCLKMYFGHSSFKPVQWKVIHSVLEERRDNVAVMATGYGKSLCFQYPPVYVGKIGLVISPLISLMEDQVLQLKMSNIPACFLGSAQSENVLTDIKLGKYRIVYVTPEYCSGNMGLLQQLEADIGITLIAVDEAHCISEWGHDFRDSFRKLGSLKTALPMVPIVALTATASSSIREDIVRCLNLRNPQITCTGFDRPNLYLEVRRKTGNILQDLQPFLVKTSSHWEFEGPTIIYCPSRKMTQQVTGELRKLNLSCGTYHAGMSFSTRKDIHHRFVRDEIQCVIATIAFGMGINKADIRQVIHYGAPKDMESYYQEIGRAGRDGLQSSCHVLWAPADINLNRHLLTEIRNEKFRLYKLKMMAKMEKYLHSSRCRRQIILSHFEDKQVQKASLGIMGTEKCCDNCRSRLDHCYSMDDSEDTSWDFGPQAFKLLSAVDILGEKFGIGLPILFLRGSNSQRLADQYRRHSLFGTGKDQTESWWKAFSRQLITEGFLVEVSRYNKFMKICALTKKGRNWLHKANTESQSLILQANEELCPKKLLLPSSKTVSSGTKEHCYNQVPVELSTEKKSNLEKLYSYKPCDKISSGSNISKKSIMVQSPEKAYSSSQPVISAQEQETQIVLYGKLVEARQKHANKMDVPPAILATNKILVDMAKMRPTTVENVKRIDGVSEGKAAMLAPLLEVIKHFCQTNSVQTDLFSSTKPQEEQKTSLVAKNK

Bifunctional 3'-5' exonuclease/ATP-dependent helicase WRN, sequence (Q14191 whole entry): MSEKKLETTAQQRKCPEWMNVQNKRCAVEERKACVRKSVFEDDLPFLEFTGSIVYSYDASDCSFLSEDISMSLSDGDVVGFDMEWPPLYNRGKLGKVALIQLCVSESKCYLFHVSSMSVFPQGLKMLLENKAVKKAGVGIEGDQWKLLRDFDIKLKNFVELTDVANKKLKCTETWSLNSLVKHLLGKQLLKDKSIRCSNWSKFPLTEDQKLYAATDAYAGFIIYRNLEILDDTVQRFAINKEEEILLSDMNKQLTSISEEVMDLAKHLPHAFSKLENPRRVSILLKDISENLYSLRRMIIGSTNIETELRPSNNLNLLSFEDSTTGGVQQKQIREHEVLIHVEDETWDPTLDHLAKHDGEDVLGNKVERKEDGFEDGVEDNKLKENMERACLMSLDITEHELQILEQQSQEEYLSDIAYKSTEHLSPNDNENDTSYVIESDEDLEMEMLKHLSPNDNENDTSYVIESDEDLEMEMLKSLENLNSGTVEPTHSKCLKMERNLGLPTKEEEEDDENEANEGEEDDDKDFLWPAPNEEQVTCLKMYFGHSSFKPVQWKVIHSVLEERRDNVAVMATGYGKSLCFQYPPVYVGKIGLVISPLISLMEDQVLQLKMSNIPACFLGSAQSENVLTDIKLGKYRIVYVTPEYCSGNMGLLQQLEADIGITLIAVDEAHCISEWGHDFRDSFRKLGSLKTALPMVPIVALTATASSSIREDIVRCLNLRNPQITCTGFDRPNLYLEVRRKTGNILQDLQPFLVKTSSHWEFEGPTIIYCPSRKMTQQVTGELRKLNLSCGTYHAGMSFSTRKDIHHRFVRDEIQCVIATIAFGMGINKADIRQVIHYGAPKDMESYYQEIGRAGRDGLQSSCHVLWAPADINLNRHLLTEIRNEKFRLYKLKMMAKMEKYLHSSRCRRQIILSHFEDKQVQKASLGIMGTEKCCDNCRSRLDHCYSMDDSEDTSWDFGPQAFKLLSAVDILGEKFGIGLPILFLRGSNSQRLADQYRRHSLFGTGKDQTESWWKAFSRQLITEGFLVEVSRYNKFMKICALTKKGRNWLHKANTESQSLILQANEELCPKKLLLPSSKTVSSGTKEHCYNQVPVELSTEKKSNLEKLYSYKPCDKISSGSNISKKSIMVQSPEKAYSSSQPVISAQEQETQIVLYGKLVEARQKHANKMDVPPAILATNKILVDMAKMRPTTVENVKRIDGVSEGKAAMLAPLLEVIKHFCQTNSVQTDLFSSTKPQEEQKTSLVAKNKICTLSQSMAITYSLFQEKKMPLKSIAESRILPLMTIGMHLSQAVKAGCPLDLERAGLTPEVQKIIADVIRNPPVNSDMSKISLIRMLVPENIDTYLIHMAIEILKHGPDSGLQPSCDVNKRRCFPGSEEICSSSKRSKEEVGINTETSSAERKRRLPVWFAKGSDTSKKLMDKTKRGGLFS

Row | IC50 [1] | IC50 [2] | Compound
1 | 0.021 µM | 0.025 µM | CCc1c(N2CCN(C(=O)c3ncnc(C)c3O)CC2)c(=O)n2nc(-c3ccc(NS(N)(=O)=O)cc3)nc2n1CC(=O)Nc1ccc(C(F)(F)F)cc1Cl [WO2025049746, Example 329]
2 | 0.068 µM | 0.057 µM | CCc1c(N2CCN(C(=O)c3ncnc(C)c3O)CC2)c(=O)n2nc(-c3cnc4cn(C)nc4c3)nc2n1CC(=O)Nc1ccc(C(F)(F)F)cc1Cl [WO2025049746, Example 300]
3 | 0.02 µM | 0.023 µM | CCc1c(N2CCN(C(=O)c3ncnc(C)c3O)CC2)c(=O)n2nc(-c3ccc4c(cnn4C)c3)nc2n1CC(=O)Nc1ccc(C(F)(F)F)cc1Cl [WO2025049746, Example 321]
4 | 0.124 µM | 0.087 µM | CCc1c(N2CCN(C(=O)c3ncnc(C)c3O)CC2)c(=O)n2nc(-c3ccc4c(c3)C(C)(C)OC4(C)C)nc2n1CC(=O)Nc1ccc(C(F)(F)F)cc1Cl [WO2025049746, Example 172]
5 | 0.0639 µM | 0.0459 µM | CCc1c(N2CCN(c3ccncn3)CC2)c(=O)n2nc(C3=CCOCC3)nc2n1CC(=O)Nc1ccc(C(F)(F)F)cc1Cl [WO2025049746, Example 66]
6 | 0.05 µM | 0.047 µM | CCc1c(N2CCN(C(=O)c3ncnc(C)c3O)CC2)c(=O)n2nc(-c3cc4cnn(C)c4cc3C)nc2n1CC(=O)Nc1ccc(C(F)(F)F)cc1Cl [WO2025049746, Example 311]
7 | 0.079 µM | 0.092 µM | CCc1c(N2CCN(C(=O)c3ncnc(C)c3O)CC2)c(=O)n2nc(-c3ccc4c(c3)[C@@H](C(F)(F)F)OC4)nc2n1CC(=O)Nc1ccc(C(F)(F)F)cc1Cl [WO2025049746, Example 275]
8 | 0.089 µM | 0.035 µM | CCc1c(N2CCN(C(=O)c3ncnc(C)c3O)CC2)c(=O)n2nc(-c3cccc4oc(C)nc34)nc2n1CC(=O)Nc1ccc(C(F)(F)F)cc1Cl [WO2025049746, Example 155]
9 | 0.026 µM | 0.028 µM | CCc1c(N2CCN(C(=O)c3ncnc(C)c3O)CC2)c(=O)n2nc(-c3cc4c(cc3F)[C@H](OC)CC4)nc2n1CC(=O)Nc1ccc(C(F)(F)F)cc1Cl [WO2025049746, Example 245]
10 | 0.045 µM | 0.038 µM | CCc1c(N2CCN(C(=O)c3ncnc(C)c3O)CC2)c(=O)n2nc(-c3ccc4c(c3C)COC4(C)C)nc2n1CC(=O)Nc1ccc(C(F)(F)F)cc1Cl [WO2025049746, Example 214]
11 | 0.025 µM | 0.03 µM | CCc1c(N2CCN(C(=O)c3ncnc(C)c3O)CC2)c(=O)n2nc(-c3ccc4nn(CC)cc4c3)nc2n1CC(=O)Nc1ccc(C(F)(F)F)cc1Cl [WO2025049746, Example 319]
12 | 0.025 µM | 0.026 µM | CCc1c(N2CCN(C(=O)c3ncnc(C)c3O)CC2)c(=O)n2nc(-c3cc4c(cc3F)O[C@@H](C)C4)nc2n1CC(=O)Nc1ccc(C(F)(F)F)cc1Cl [WO2025049746, Example 249]
13 | 0.053 µM | 0.042 µM | CCc1c(N2CCN(C(=O)c3ncnc(C)c3O)CC2)c(=O)n2nc(-c3ccc4c(c3)C(C)(C)OC4)nc2n1CC(=O)Nc1ccc(C(F)(F)F)cc1Cl [WO2025049746, Example 165]
14 | 0.044 µM | 0.048 µM | CCc1c(N2CCN(C(=O)c3ncnc(C)c3O)CC2)c(=O)n2nc(-c3ccc4c(c3)CCN(C)C4)nc2n1CC(=O)Nc1ccc(C(F)(F)F)cc1Cl [WO2025049746, Example 294]
15 | 0.054 µM | 0.039 µM | C=C(c1ccc(NC(=O)Cn2c(CC)c(N3CCN(C(=O)c4ncnc(C)c4O)CC3)c(=O)n3nc(-c4ccc5c(c4)COC5)nc23)c(Cl)c1)C(F)(F)F [WO2025049746, Example 419]
16 | 0.075 µM | 0.093 µM | CCc1c(N2CCN(C(=O)c3ncnc(C)c3O)CC2)c(=O)n2nc(-c3cc(OC(F)F)n4nccc4c3F)nc2n1CC(=O)Nc1ccc(C(F)(F)F)cc1Cl [WO2025049746, Example 317]

Row | IC50 [1] | IC50 [2] | Compound
17 | 0.08 µM | 0.067 µM | CCc1c(N2CC[C@@H](C)N(C(=O)c3ncnc(C)c3O)CC2)c(=O)n2nc(C3=CCOCC3)nc2n1CC(=O)Nc1ccc(C(F)(F)F)cc1Cl [WO2025049746, Example 341]
18 | 0.106 µM | 0.0846 µM | CCc1c(N2CCN(C(=O)c3ccccc3NS(=O)(=O)C3CC3)CC2)c(=O)n2nc(-c3ccc4c(c3)CCOC4)nc2n1CC(=O)Nc1ccc(C(F)(F)F)cc1Cl [WO2025049746, Example 91]
19 | 0.035 µM | 0.038 µM | CCc1c(N2CCN(C(=O)c3ncnc(C)c3O)CC2)c(=O)n2nc(-c3cc(OC)c4nn(C)cc4c3)nc2n1CC(=O)Nc1ccc(C(F)(F)F)cc1Cl [WO2025049746, Example 286]
20 | 0.202 µM | 0.135 µM | CCc1c(N2CCN(C(=O)c3ccccc3NS(=O)(=O)C3CC3)CC2)c(=O)n2nc(-c3cccc4c3OCCO4)nc2n1CC(=O)Nc1ccc(C(F)(F)F)cc1Cl [WO2025049746, Example 379]
21 | 0.016 µM | 0.015 µM | CCc1c(N2CCN(C(=O)c3ncnc(C)c3O)CC2)c(=O)n2nc(-c3ccc4n[nH]cc4c3)nc2n1CC(=O)Nc1ccc(C(F)(F)F)cc1Cl [WO2025049746, Example 258]
22 | 0.027 µM | 0.031 µM | CCc1c(N2CCN(C(=O)c3ncnc(C)c3O)CC2)c(=O)n2nc(-c3ccc4c(c3)OCCN4)nc2n1CC(=O)Nc1ccc(C(F)(F)F)cc1Cl [WO2025049746, Example 281]
23 | 0.281 µM | 0.264 µM | CCc1c(N2CCN(C(=O)c3ccccc3NS(=O)(=O)C3CC3)CC2)c(=O)n2nc(N(C)C)nc2n1CC(=O)Nc1ccc(C(F)(F)F)c2c1CC2 [WO2025049746, Example 105]
24 | 0.044 µM | 0.045 µM | CCc1c(N2CCN(C(=O)c3ncnc(C)c3O)CC2)c(=O)n2nc(-c3ccc4c(c3)COC4(C)C)nc2n1CC(=O)Nc1ccc(C(F)(F)F)cc1Cl [WO2025049746, Example 164]
25 | 0.033 µM | 0.034 µM | CCc1c(N2CCN(C(=O)c3ncnc(C)c3O)CC2)c(=O)n2nc(-c3ccc4c(cnn4CC(F)F)c3)nc2n1CC(=O)Nc1ccc(C(F)(F)F)cc1Cl [WO2025049746, Example 293]
26 | 0.038 µM | 0.03 µM | CCc1c(N2CCN(C(=O)c3ncnc(C)c3O)CC2)c(=O)n2nc(-c3ccc4c(c3)[C@@H](C)OC4)nc2n1CC(=O)Nc1ccc(C(F)(F)F)cc1Cl [WO2025049746, Example 190]
27 | 0.0218 µM | 0.0155 µM | CCc1c(N2CCN(C(=O)c3nccc4nc[nH]c34)CC2)c(=O)n2nc(N(C)C)nc2n1CC(=O)Nc1ccc(C(F)(F)F)c2c1CC2 [WO2025049746, Example 108]
28 | 0.04 µM | 0.049 µM | CCc1c(N2CCN(C(=O)c3ncnc(C)c3O)CC2)c(=O)n2nc(-c3ccc4c(c3)C[C@@H](C)O4)nc2n1CC(=O)Nc1ccc(C(F)(F)F)cc1Cl [WO2025049746, Example 231]
29 | 0.089 µM | 0.06 µM | CCc1c(N2CCN(C(=O)c3ncnc(C)c3O)CC2)c(=O)n2nc(-c3cccc4c3COC4)nc2n1CC(=O)Nc1c(Cl)cc(C(F)(F)F)c2c1CC2 [WO2025049746, Example 386]
30 | 0.0646 µM | 0.0447 µM | CCc1c(N2CCN(C(=O)c3cn(C)nc3O)CC2)c(=O)n2nc(N(C)C)nc2n1CC(=O)Nc1ccc(C(F)(F)F)cc1Cl [WO2025049746, Example 83]
31 | 0.577 µM | 0.102 µM | CCc1c(N2CCN(C(C)=O)CC2)c(=O)n2nc(-c3ncc(O)cn3)nc2n1CC(=O)Nc1ccc(C(F)(F)F)cc1Cl [WO2025049746, Example 434]
